# Measured values taken from patent US8937167B2 (Washington University, priority 2009, dated 2015).
# Biological target: FimH (Escherichia coli, UniProt Q1R2J4)
# Conditions: not given
# 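Further: hemagglutination inhibition of guinea pig erythrocytes agglutinated by type 1 piliated uropathogenic E. coli via FimH mannose binding, quantified through serial dilutions of compound.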
row,SMILES,HAI Titer EC>90
1,"O=C(NCCCCCCCCNC(=O)c1cccc(-c2ccc(OC3OC(CO)C(O)C(O)C3O)cc2)c1)c1cccc(-c2ccc(OC3OC(CO)C(O)C(O)C3O)cc2)c1 (stereo not drawn) [Compound 2ZFH234, 3-[4-[3,4,5-trihydroxy-6-(hydroxymethyl)tetrahydropyran-2-yl]oxyphenyl]-N-[8-[[3-[4-[3,4,5-trihydroxy-6-(hydroxymethyl)tetrahydropyran-2-yl]oxyphenyl]benzoyl]amino]octyl]benzamide]",2.00 µM
2,"OCC1OC(n2cc(-c3ccccc3)nn2)C(O)C(O)C1O (stereo not drawn) [Compound 4ZFH105, 2-(hydroxymethyl)-6-(4-phenyltriazol-1-yl)tetrahydropyran-3,4,5-triol]",32.000 µM
3,"O=[N+]([O-])c1ccc(COC2OC(CO)C(O)C(O)C2O)cc1 (stereo not drawn) [Compound 1ZFH152, 2-(hydroxymethyl)-6-[(4-nitrophenyl)methoxy]tetrahydropyran-3,4,5-triol]",60.000 µM
4,"O=C(NCCCCOC1OC(CO)C(O)C(O)C1O)c1ccc(-c2c3ccc(=O)cc-3oc3cc(O)ccc23)c(C(=O)O)c1 (stereo not drawn) [Compound 1ZFH134B, 2-(3-hydroxy-6-oxo-xanthen-9-yl)-5-[4-[3,4,5-trihydroxy-6-(hydroxymethyl)tetrahydropyran-2-yl]oxybutylcarbamoyl]benzoic acid]",125.000 µM
5,"CNC(=O)c1cc(C(=O)NC)cc(-c2ccc(OC3O[C@@H](CO)[C@@H](O)[C@H](O)[C@H]3O)c(C)c2)c1 (stereo partly drawn) [Compound 4ZFH284, N1,N3-dimethyl-5-[3-methyl-4-[(3R,4S,5S,6S)-3,4,5-trihydroxy-6-(hydroxymethyl)tetrahydropyran-2-yl]oxy-phenyl]benzene-1,3-dicarboxamide]",0.016 µM
6,"OCc1cccc(-c2ccc(OC3OC(CO)C(O)C(O)C3O)cc2)c1 (stereo not drawn) [Compound 3ZFH18, 2-(hydroxymethyl)-6-[4-[3-(hydroxymethyl)phenyl]phenoxy]tetrahydropyran-3,4,5-triol]",3.000 µM
7,"O=C(c1cccc(-c2ccc(OC3OC(CO)C(O)C(O)C3O)cc2)c1)N1CCNCC1 (stereo not drawn) [Compound 3ZFH284, piperazin-1-yl-[3-[4-[3,4,5-trihydroxy-6-(hydroxymethyl)tetrahydropyran-2-yl]oxyphenyl]phenyl]methanone]",4.0000 µM
8,"OCC1OC(Oc2cc(F)c(F)c(F)c2)C(O)C(O)C1O (stereo not drawn) [Compound 1ZFH282, 2-(hydroxymethyl)-6-(3,4,5-trifluorophenoxy)tetrahydropyran-3,4,5-triol]",125.000 µM
9,"CNC(=O)c1cccc(-c2ccc(OC3OC(CO)C(O)C(O)C3O)cc2C(=O)OC)c1 (stereo not drawn) [Compound 2ZFH265, methyl 2-[3-(methylcarbamoyl)phenyl]-5-[3,4,5-trihydroxy-6-(hydroxymethyl)tetrahydropyran-2-yl]oxy-benzoate]",2.000 µM
10,"O=C(Nc1cccnc1)c1cccc(-c2ccc(OC3OC(CO)C(O)C(O)C3O)cc2)c1 (stereo not drawn) [Compound 3ZFH265, N-(3-pyridyl)-3-[4-[3,4,5-trihydroxy-6-(hydroxymethyl)tetrahydropyran-2-yl]oxyphenyl]benzamide]",0.375 µM
11,"COC(=O)c1cccc(-c2ccc(SC3OC(CO)C(O)C(O)C3O)cc2)c1 (stereo not drawn) [Compound 4ZFH55, methyl 3-[4-[3,4,5-trihydroxy-6-(hydroxymethyl)tetrahydropyran-2-yl]sulfanylphenyl]benzoate]",4.000 µM
12,"COc1ccc(OC2OC(CO)C(O)C(O)C2O)cc1 (stereo not drawn) [Compound 2ZFH176, 2-(hydroxymethyl)-6-(4-methoxyphenoxy)tetrahydropyran-3,4,5-triol]",8.000 µM
13,"COC(=O)c1cccc(-c2ccc(NC(=O)C3OC(CO)C(O)C(O)C3O)cc2)c1 (stereo not drawn) [Compound 4ZFH89, methyl 3-[4-[[3,4,5-trihydroxy-6-(hydroxymethyl)tetrahydropyran-2-carbonyl]amino]phenyl]benzoate]",16.000 µM
14,"OCc1ccccc1-c1ccc(OC2OC(CO)C(O)C(O)C2O)cc1 (stereo not drawn) [Compound 3ZFH114, 2-(hydroxymethyl)-6-[4-[2-(hydroxymethyl)phenyl]phenoxy]tetrahydropyran-3,4,5-triol]",16.000 µM
15,"COC(=O)c1cccc(-c2ccc(C(=O)NCC3O[C@@H](CO)[C@@H](O)[C@H](O)[C@H]3O)cc2)c1 (stereo partly drawn) [Compound 4ZFH131, methyl 3-[4-[[(3R,4R,5S,6S)-3,4,5-trihydroxy-6-(hydroxymethyl)tetrahydropyran-2-yl]methylcarbamoyl]phenyl]benzoate]",16.000 µM
16,"CC(=O)Nc1ccccc1OC1OC(CO)C(O)C(O)C1O (stereo not drawn) [Compound 1ZFH95, N-[2-[3,4,5-trihydroxy-6-(hydroxymethyl)tetrahydropyran-2-yl]oxyphenyl]acetamide]",125.000 µM
17,"COC(=O)c1ccc(-c2cccc(OC3OC(CO)C(O)C(O)C3O)c2)cc1 (stereo not drawn) [Compound 1ZFH265, methyl 4-[3-[3,4,5-trihydroxy-6-(hydroxymethyl)tetrahydropyran-2-yl]oxyphenyl]benzoate]",6.000 µM
18,"OCC1OC(Oc2ccc(-c3ccccc3O)cc2)C(O)C(O)C1O (stereo not drawn) [Compound 3ZFH111, 2-(hydroxymethyl)-6-[4-(2-hydroxyphenyl)phenoxy]tetrahydropyran-3,4,5-triol]",8.000 µM
19,"OCc1ccc(-c2ccc(OC3OC(CO)C(O)C(O)C3O)cc2)cc1 (stereo not drawn) [Compound 3ZFH24, 2-(hydroxymethyl)-6-[4-[4-(hydroxymethyl)phenyl]phenoxy]tetrahydropyran-3,4,5-triol]",6.000 µM
20,"OCC1OC(Oc2ccc(-c3cccc(O)c3)cc2)C(O)C(O)C1O (stereo not drawn) [Compound 3ZFH44, 2-(hydroxymethyl)-6-[4-(3-hydroxyphenyl)phenoxy]tetrahydropyran-3,4,5-triol]",4.000 µM

# Same assay, conditions: Table 19; Examples 30-36 numbering
row,SMILES,HAI Titer EC>90
1,"COC(=O)c1ccc(-c2ccc(O[C@H]3O[C@H](CO)[C@@H](O)[C@H](O)[C@@H]3O)cc2)s1 [Compound 13b, Methyl 5-[4-[(2R,3S,4S,5S,6R)-3,4,5-trihydroxy-6-(hydroxymethyl)tetrahydropyran-2-yl]oxyphenyl]thiophene-2-carboxylate]",1.0 µM

# Same assay, conditions: Table 21
row,SMILES,HAI Titer EC>50
1,COC(=O)c1cccc(-c2ccc(OC3OC(CO)C(O)C(O)C3O)cc2)c1 (stereo not drawn) [Compound 2ZFH238],>2500 µM

# Same assay, conditions: Table 21; ZFH/JWJ codes
row,SMILES,HAI Titer EC>50
1,"CNC(=O)c1cc(C(=O)NC)cc(-c2ccc(OC3O[C@@H](CO)[C@@H](O)[C@H](O)[C@H]3O)c(C)c2)c1 (stereo partly drawn) [Compound 4ZFH284, N1,N3-dimethyl-5-[3-methyl-4-[(3R,4S,5S,6S)-3,4,5-trihydroxy-6-(hydroxymethyl)tetrahydropyran-2-yl]oxy-phenyl]benzene-1,3-dicarboxamide]",0.016 µM
2,CC(=O)Nc1ccc(-c2ccc(OC3OC(CO)C(O)C(O)C3O)cc2)cc1 (stereo not drawn) [Compound 4ZFH277],1.000 µM
3,"COC(=O)c1cccc(-c2ccc(C(=O)NCC3O[C@@H](CO)[C@@H](O)[C@H](O)[C@H]3O)cc2)c1 (stereo partly drawn) [Compound 4ZFH131, methyl 3-[4-[[(3R,4R,5S,6S)-3,4,5-trihydroxy-6-(hydroxymethyl)tetrahydropyran-2-yl]methylcarbamoyl]phenyl]benzoate]",16.000 µM
4,O=C(NCCCCOC1OC(CO)C(O)C(O)C1O)c1ccc(-c2c3ccc(=O)cc-3oc3cc(O)ccc23)c(C(=O)O)c1 (stereo not drawn) [Compound 1ZFH134],125.000 µM
5,CC(=O)Nc1ccc(-c2ccc(OC3OC(CO)C(O)C(O)C3O)cc2)cc1C(=O)O (stereo not drawn) [Compound 4ZFH306],0.750 µM
6,COC(=O)COC1OC(CO)C(O)C(O)C1O (stereo not drawn) [Compound 1ZFH74],500.000 µM
7,CNC(=O)c1cccc(-c2ccc([C@H](O)C3OC(CO)C(O)C(O)C3O)cc2)c1 (stereo partly drawn) [Compound 5ZFH48],24.000 µM

# Same assay, conditions: Table 22; ZFH/JWJ codes
row,SMILES,HAI Titer EC>90
1,"CNC(=O)c1cc(C(=O)NC)cc(-c2ccc(OC3O[C@@H](CO)[C@@H](O)[C@H](O)[C@H]3O)c(C)c2)c1 (stereo partly drawn) [Compound 4ZFH284, N1,N3-dimethyl-5-[3-methyl-4-[(3R,4S,5S,6S)-3,4,5-trihydroxy-6-(hydroxymethyl)tetrahydropyran-2-yl]oxy-phenyl]benzene-1,3-dicarboxamide]",0.016 µM
2,"COC(=O)c1cccc(-c2ccc(C(=O)NCC3O[C@@H](CO)[C@@H](O)[C@H](O)[C@H]3O)cc2)c1 (stereo partly drawn) [Compound 4ZFH131, methyl 3-[4-[[(3R,4R,5S,6S)-3,4,5-trihydroxy-6-(hydroxymethyl)tetrahydropyran-2-yl]methylcarbamoyl]phenyl]benzoate]",16.000 µM

# Same assay, conditions: read-out: HA 50% titer; Example 6 numbering
row,SMILES,EC50
1,"COC1OC(CO)C(O)C(O)C1O (stereo not drawn) [Methylaman, reference compound]",> 1000 µM

# Same assay, conditions: read-out: HAI Titer EC90
row,SMILES,EC90
1,"CCCCO[C@H]1O[C@H](CO)[C@@H](O)[C@H](O)[C@@H]1O [butyl-α-D-mannoside, reference compound]",125 µM
